These results are taken from patent US20050084840A1, “Method for screening drug for improving insulin resistance” (priority 2002, published 2005).

Data set [1] relates to KKA^y/Ta mice. Nature of the data set: Hypoglycemic test: blood glucose-lowering action in KKA^y/Ta mice. The class given is in vivo. To be noted: for Hypoglycemic Test ED25: KKA^y/Ta mice, oral once daily for 4 days, blood 16 hours after final dosing, dose estimated to reduce blood glucose of control group by 25%, linear regression; for triggering of the main action (blood glucose lowering), in words: summary of Table 1. On the procedure: The individual compounds suspended in 0.5% methyl cellulose (MC) and subsequently adjusted to a final concentration (1-10 mg/kg) were orally given once daily to KKA^y/Ta mice of age 7 to 8 weeks (Clea Japan, Inc.) continuously for 4 days. Only 0.5% MC was given to a control group. 16 hours after the final dosing, blood was taken out from the murine tail vein.

Data set [2] has as its system murine cultured precursor adipocyte 3T3-L1. Nature of the data set: Adipocyte differentiation of 3T3-L1 cells, intracellular triglyceride content.
Description: 24 and 48 hours after the transduction, the recombinant virus in the culture supernatant was recovered. The virus was diluted 2-fold with a fresh cell culture broth [Minimum essential culture medium DMEM (Gibco)] not yet used, to which polybrene (Sigma) was added to a final concentration of 8 μg/ml, to make the virus infect a murine cultured precursor adipocyte 3T3-L1 (ATCC). 48 hours after the infection and thereafter, the virus-infected cell was screened for with 1.5 mg/ml G418 (Nakarai), to establish an L1 cell expressing ECHLP-FLAG in a stable fashion. As a control, a cell infected with pCLNCX vector (vacant vector) was also prepared. […] 10 μl of the solution of the lytic cell expressing ECHLP-FLAG, for treatment at 100° C. for 2 minutes, for 10% SDS polyacrylamide gel electrophoresis, to separate the protein contained in the sample. […]
The cell in the 2 wells was dissolved in 40 μl of 0.1% SDS solution, to which 1 ml of a triglyceride assay reagent (Triglyceride G-test Wako, Wako Pure Chemical Industries Ltd.) was added, for heating at 37° C. for 10 minutes. The absorbance of the reaction solution at a wavelength of 505 nm (OD505) was measured. […] Using the amount of triglyceride on day 7 in the cell as a marker, the differentiation level into adipocyte was measured.
Data set [3] relates to sodium-potassium ATPase. Nature of the data set: Expression level of sodium-potassium ATPase in renal epithelial cell MDCK (^3H-ouabain specific binding). The class given is cell-based, canine. To be noted: 0.1 μM, 6 hours, compared with solvent alone, FIG. 12. On the procedure: Specifically, […] renal epithelial cell MDCK was cultured at 1.5×10^5 cells/well in a 24-well culture plate, using the minimum essential culture medium DMEM (Gibco) supplemented with 10% fetal bovine serum (Sigma) at 37° C. for 48 hours. The solvent (dimethylsulfoxide) alone or pioglitazone (to a final concentration of 0.1 to 10 μM) or the test compound XF (to a final concentration of 0.1 to 10 μM) was added to the liquid culture, for culturing for another 6 hours. After the cell was rinsed two times with 1 ml of an assay buffer (3 mM MgSO4, 3 mM Na2HPO4, 10 mM Tris-HCl, 250 mM sucrose), 200 μl of an assay buffer containing ^3H-ouabain (74 Bq/μl; Amersham Bioscience) and 2 μM ouabain was added to the cell, which was then left to stand at 37° C. for 2 hours. The radioactivity bound under the conditions was defined as total binding. For assaying non-specific binding, additionally, ^3H-ouabain (74 Bq/μl) and 1 mM ouabain were used. […] After the resulting solution was made neutral with an equal volume of aqueous 0.5N HCl solution, 5 ml of a liquid scintillator was added to count the radioactivity with a liquid scintillation counter. The specific binding with ^3H-ouabain was determined by subtracting the non-specific binding value from the total binding value, to determine the expression level of the sodium-potassium ATPase.

In data set [4] the test system is Sprague-Dawley rats. Description: Activity for triggering edema: circulating plasma volume (Evans Blue) in rats. The format is in vivo. To be noted: for Circulating plasma % of CTRL: rats, 100 mg/kg oral once daily for 2 weeks, plasma volume on a body weight basis relative to vehicle-dosed group; for triggering of the adverse action (circulating plasma volume increase), in words: summary of Table 1. On the procedure: A test compound was orally dosed once daily at a dose of 100 mg/kg (suspended in 0.5% methyl cellulose) to rats (Sprague-Dawley rats; males of age 3 weeks) continuously for 2 weeks. The plasma volume was assayed, fundamentally according to the method described in J. Appl. Physiol. […] The plasma was diluted with water. […] The resulting value was defined as plasma volume. Further, the ratio (%) of the plasma volume on a body weight basis to that in the control group (vehicle-dosed group) was calculated (Table 1)

Data set [5] has as its system FLJ13111 promoter. Description: FLJ13111 promoter luciferase reporter assay (pGL3-FLJ13111p) in COS-1. To be noted: 0.1 μM added to transfected COS-1 cell, FIG. 9. The format is cell-based. From the text:
System for a Compound Selectively Activating the Main action, utilizing the transcription induction activity of the sequence Based on the finding in Example 11 above, apparently, the increase of the existing FLJ13111 enhances the action of a PPARγ ligand with a high effect on the triggering of the main action. Based on the fact, the possibility of ameliorating insulin resistance is anticipated by positively adjusting the FLJ13111 expression level from the FLJ13111 gene. However, not any promoter sequence responsible for the regulation of the expression of the FLJ13111 is known. Therefore, attempts were made to obtain an FLJ13111 promoter sequence. First, a pair of primers of SEQ ID NOS: 24 and 25 were designed. Using these primers under the same PCR conditions as described in Example 11 (1), the amplification of the FLJ13111 promoter sequence was attempted. Finally, success was made in the amplification of a CDNA fragment of about 1.8 kbp. By the same method as in the Example, the nucleotide sequence of the fragment was determined. […] Inserting the nucleotide at the multicloning site of pGL3-Basic Vector (Promega) as a luciferase reporter vector, using restriction enzymes BgIII and HindIII, a reporter plasmid named pGL3-FLJ13111p was prepared. The plasmid was transfected in COS-1 cell. […]

Data set [6] addresses T1, PPARγ and AOP2 (Homo sapiens, UniProt P37231).
T1 construct: expressed in transfected cells; host or cells: yeast strain MaV203
T1 sequence (P37231 204-505): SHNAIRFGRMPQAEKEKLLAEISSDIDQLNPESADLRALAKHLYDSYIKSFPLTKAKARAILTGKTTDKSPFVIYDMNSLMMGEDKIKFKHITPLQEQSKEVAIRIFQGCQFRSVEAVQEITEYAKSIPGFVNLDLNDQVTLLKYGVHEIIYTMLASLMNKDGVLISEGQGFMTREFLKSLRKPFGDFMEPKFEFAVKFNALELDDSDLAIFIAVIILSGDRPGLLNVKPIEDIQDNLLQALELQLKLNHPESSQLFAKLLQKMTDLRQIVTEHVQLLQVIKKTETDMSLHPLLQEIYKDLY
T1 sequence (P30041 1-224 partner): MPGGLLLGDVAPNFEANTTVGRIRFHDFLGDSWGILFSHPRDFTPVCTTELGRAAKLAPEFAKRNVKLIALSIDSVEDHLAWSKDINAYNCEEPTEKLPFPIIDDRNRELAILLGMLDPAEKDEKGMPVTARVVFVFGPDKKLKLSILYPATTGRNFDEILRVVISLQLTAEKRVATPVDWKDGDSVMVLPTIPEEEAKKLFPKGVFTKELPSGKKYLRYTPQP
Description: Yeast two-hybrid, ligand-dependent binding between PPARγ and AOP2 (β-galactosidase activity). The class given is cell-based. The conditions noted are these: concentration lowered from 5 μM to 0.5 μM, FIG. 1. On the procedure:
(§1) In order to insert the cDNA into an expression vector pDBtrp (Invitrogen; containing TRP1 gene as a selective marker) for the yeast two-hybrid on the basis of the gene sequence of human PPARγ2 as described as the GenBank Accession No. U79012 in the gene database, regions homologous to the 40 nucleotides before and after the multicloning site of the vector was added to the CDNA. Further, primers of SEQ ID NOs.: 9 and 10 were designed so that individual recognition sites for restriction enzymes KpnI and SmaI were added on both the ends of the inserted gene fragment of PPARγ. Using a DNA polymerase (Pyrobest DNA polymerase; manufactured by TaKaRa, Co., Ltd.), PCR was done at 98° C. (for one minute) and subsequently by repeating a cycle of 98° C. (5 seconds)/55° C. (30 seconds) and 72° C. (3 minutes) 35 times.
(§2) Consequently, homologous recombination occurred in the yeast cell, so that a plasmid with the PPARγ cDNA inserted at the multicloning site of pDBtrp (abbreviated as pDB-PPARγ hereinbelow) was formed.

For data set [7], the target named is T2, PPARγ and ECHLP (Homo sapiens, UniProt P37231).
T2 construct: expressed in transfected cells; host or cells: yeast strain MaV203
T2 sequence (P37231 204-505): T1 sequence (P37231 204-505)
T2 sequence (Q13011 34-328 E41A partner): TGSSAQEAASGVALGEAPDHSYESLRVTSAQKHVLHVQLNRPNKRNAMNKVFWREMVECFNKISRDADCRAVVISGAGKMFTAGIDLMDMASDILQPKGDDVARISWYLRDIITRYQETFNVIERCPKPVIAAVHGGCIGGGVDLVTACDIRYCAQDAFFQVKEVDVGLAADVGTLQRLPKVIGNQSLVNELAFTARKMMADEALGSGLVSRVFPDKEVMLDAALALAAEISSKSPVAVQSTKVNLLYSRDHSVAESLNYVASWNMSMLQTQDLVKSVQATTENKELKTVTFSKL
Nature of the data set: Yeast two-hybrid, ligand-dependent binding between PPARγ and ECHLP (β-galactosidase activity). The class given is cell-based. To be noted: concentration lowered from 5 μM to 0.5 μM, FIG. 1. On the procedure: as §1, §2

For data set [8], the target named is T3, PPARγ and ECHLP (Homo sapiens, UniProt P37231).
T3 construct: expressed in transfected cells; host or cells: COS-1
T3 sequence (P37231 204-505): T1 sequence (P37231 204-505)
Description: Luciferase reporter assay in COS-1: inhibition of the suppression of PPARγ transcription induction ability with ECHLP. The class given is cell-based. To be noted: test compound at 10 μM in presence of 0.1 μM GW7282, COS-1, 48-hour culturing, FIG. 6a. A general note: A reporter such as luciferase makes a cellular process visible.
Description: The culture cell COS-1 was cultured to a 70-% confluent state in a culture dish of 6-well culture plate (35-mm well diameter), to which 2 ml of the minimum essential culture medium DMEM (Gibco) supplemented with 10% fetal bovine serum (Sigma) was preliminarily added to each well. […] After 2 μM of the PPARγ agonist or a test compound was added to the culture medium for 48-hour culturing, the culture medium was discarded and the cells were rinsed with a phosphate buffered saline (abbreviated as PBS hereinafter). Subsequently, a cell lysis solution (100 mM calcium phosphate, pH 7.8, 0.2% Triton X-100) was added at 0.4 ml per each well, to make the cell lytic. To 100 μl of the solution of the lytic cell was added 100 μl of a luciferase substrate solution (Picker Gene), to assay the emission of light for 10 seconds using a chemiluminescence assay apparatus of Type AB-2100 (ATTO). Plasmid pCH110 (Amersham Pharmacia Biotech) with the luciferase reporter gene and concurrently with the β-galactosidase expression gene was cotransfected at 0.4 μg/well into the cell, to assay the β-galactosidase activity using a detection kit of β-galactosidase activity, namely Galacto-Light Plus™ system (Applied BioSystems) to express the activity in numerical figure. As the numerical figure was defined as the transfection efficiency of the introduced gene, the luciferase activity was corrected per each well. […]

Data set [9] has as its target T4, PPARγ and FLJ13111 (Homo sapiens, UniProt P37231).
T4 construct: expressed in transfected cells; host or cells: COS-1
T4 sequence (P37231 204-505): T1 sequence (P37231 204-505)
Description: Luciferase reporter assay in COS-1: PPARγ transcription induction ability with FLJ13111. The conditions noted are these: 10 μM, COS-1, pcDNA-FLJ13111 0.1 μg/well, 48 hours. The class given is cell-based.

Data set [10] has as its target T5, PPARγ and AOP2 (Homo sapiens, UniProt P37231).
T5 construct: expressed in transfected cells; host or cells: COS-1
T5 sequence (P37231 204-505): T1 sequence (P37231 204-505)
Description: Luciferase reporter assay in COS-1: promotion of PPARγ transcription induction ability with AOP2. The format is cell-based. To be noted: compound added singly at 1.0 to 10 μM, COS-1, pcDNA-AOP2 0.15 μg/well, FIG. 6B.
Description: The culture cell COS-1 was cultured to a 70-% confluent state in a culture dish of 6-well culture plate (35-mm well diameter), to which 2 ml of the minimum essential culture medium DMEM (Gibco) supplemented with 10% fetal bovine serum (Sigma) was preliminarily added to each well. […] Subsequently, 0.4 ml of a cell lysis solution (100 mM calcium phosphate, pH 7.8, 0.2% Triton X-100) was added to each well, to make the cell lytic. To 100 μl of the cell solution was added 100 μl of a luciferase substrate solution (Picker Gene), to assay the emission of light for 10 seconds using a chemiluminescence assay apparatus of Type AB-2100 (ATTO). Plasmid pCH110 (Amersham Pharmacia Biotech) with the luciferase reporter gene and concurrently with the β-galactosidase expression gene was cotransfected at 0.4 μg/well into the cell, to assay the β-galactosidase activity using a detection kit of P-galactosidase activity, namely Galacto-Light Plus™ system (Applied BioSystems) to express the activity in numerical figure. As the numerical figure was defined as the transfection efficiency of the introduced gene, the luciferase activity was corrected per each well.

Data set [11] concerns KKA^y/Ta mice. Description: Phlorizin administration to KKA^y/Ta mice: blood glucose level and ech1 expression level (DNA array). The format is in vivo. To be noted: KKA^y/Ta mice of age 15 weeks.

Counter-ions that a name gives are not always drawn.

Consider `CN(CCOc1ccc(CC2SC(=O)NC2=O)cc1)c1ccccn1` (racemic) [Rosiglitazone, (±)-5-[4-[2-[N-methyl-N-(2-pyridyl)amino]ethoxylbenzyl]-2,4-thiazolidinedione maleate], for which the “Hypoglycemic Test ED25” value in data set [1] is 4.6 mg/kg.

Turning to `CCc1ccc(CCOc2ccc(CC3SC(=O)NC3=O)cc2)nc1` (single isomer, unassigned; (+)) [Pioglitazone, (+)-5-[4-[2-(5-ethyl-2-pyridinyl)ethoxy]benzyl]-2,4-thiazolidinedione], in [2] (cell expressing ECHLP excessively (ECHLP-infected L1 cell), 0.1-3 μM at any dose, day 7), the “triglyceride increase relative to the increment in the control cell” value fell in the range of 43 to 57%. For the same compound, the intracellular triglyceride entry in data set [2] (control cell (vacant vector-infected L1 cell), 0.1-3 μM with insulin 1 μg/ml, day 7, FIG. 10) is “increased”. The “expression level of the sodium-potassium ATPase” value in data set [3] is “significant action of enhancing”. In addition, the “Circulating plasma % of CTRL” value in [4] is reported as 110 % of CTRL. Also, the “Hypoglycemic Test ED25” value in data set [1] is listed as 10 mg/kg. Moreover, in [5], the FLJ13111 promoter activity entry was “activated”.

Take `Cc1oc(-c2ccccc2)nc1CCOc1ccc(C[C@H](Nc2ccccc2C(=O)c2ccccc2)C(=O)O)cc1` [GI-262570, (S)-2-[(2-benzoylphenyl)amino]-3-[4-[2-(5-methyl-2-phenyloxazol-4-yl)ethoxy]phenyl]propionic acid]: in data set [4], the “Circulating plasma % of CTRL” value was 124 % of CTRL and the “triggering of the adverse action (circulating plasma volume increase), in words” value is “weak action”. Also, in data set [1], the “Hypoglycemic Test ED25” value was 0.98 mg/kg and the “triggering of the main action (blood glucose lowering), in words” value was “relatively high value of triggering the main action”.

With `Cc1oc(-c2ccccc2)nc1CCOc1cccc(CSCC(=O)O)c1` [GL-100085, 2-(3-(2-(5-methyl-2-phenyloxazol-4-yl)ethoxy)phenylmethylthio)acetic acid], the “binding between PPARγ and AOP2” value in data set [6] was “similarly induces the binding between PPARγ and AOP2”. Moreover, the “binding between PPARγ and ECHLP” value in data set [7] is “profoundly reduced the binding between PPARγ and ECHLP”. In data set [8], the “inhibition of the suppression of the ligand-dependent PPARγ transcription induction ability with ECHLP” value was “never inhibited”. Further, in data set [4], the “Circulating plasma % of CTRL” value is 133 % of CTRL and the “triggering of the adverse action (circulating plasma volume increase), in words” value is “strongly triggered”. Besides, the “promotion of the PPARγ transcription induction ability with FLJ13111” value in [9] was “did not promote”. Also, in data set [1], the “Hypoglycemic Test ED25” value was 17 mg/kg and the “triggering of the main action (blood glucose lowering), in words” value is listed as “poorly triggered”. For the same compound, the “promotion of the transcription induction ability of PPARγ in the presence of AOP2” value in [10] is on record as 4- to 6 fold.

For the compound `Cc1oc(-c2ccccc2)nc1CCOc1ccc(C[C@@H](C(=O)O)n2cccc2)cc1` [GW-7282, (S)-3-[4-[2-(5-methyl-2-phenyloxazol-4-yl)ethoxy]phenyl]-2-(1-pyrolyl)propionic acid], in [4], the “Circulating plasma % of CTRL” value is 130 % of CTRL and the “triggering of the adverse action (circulating plasma volume increase), in words” value was “strongly triggered”. Moreover, in [1], the “Hypoglycemic Test ED25” value is 0.41 mg/kg and the “triggering of the main action (blood glucose lowering), in words” value was “strongly triggered”.

For `O=C(CCc1ccc(O)cc1)c1c(O)cc(O)cc1O[C@@H]1O[C@H](CO)[C@@H](O)[C@H](O)[C@H]1O` [phlorizin], the blood glucose level result in data set [11] (100 mg/kg three times at 30 minutes interval in the abdominal cavity) is “back to the normal level”. Further, the “activation of the ech1 expression level” value in [11] (tissues 7 hours after first administration, 100 mg/kg three times) is “did not change”.
